Assay results taken from patent US20190307843A1, “SINGLE DOSE METHODS FOR PREVENTING AND TREATING FUNGAL INFECTIONS” (Cidara Therapeutics, Inc., priority 2016, published 2019).
Where “and” joins values, the source holds several entries; their conditions need not be identical. Equal values may be shown once. Read-outs that look alike come from different tables or passages of the source. Starred links: 1 amine or outer side, 2 acyl side, 3 side chain; linkers in the order of their positions; H or OH if unused. Positions of bridges follow the written chain, without caps; N, C: chain ends. Non-standard residues stand in square brackets, D forms with d. Residues, ends and D or L forms follow the SMILES beside them. *: point of attachment. Orn(4R-OH,5R-OCH2CH2NMe3+) = C[N+](C)(C)CCO[C@@H](N[*:3])[C@H](O)C[C@H](N[*:1])C(=O)[*:2]; pTerphenylCO(4''-OnC5H11) = CCCCCOc1ccc(-c2ccc(-c3ccc(C(=O)*)cc3)cc2)cc1; hTyr(3S-OH,4S-OH) = N[C@H](C(=O)O)[C@H](O)[C@@H](O)c1ccc(O)cc1; Pro(3S-OH,4S-Me) = C[C@H]1CN[C@H](C(=O)O)[C@H]1O; Hyp = O=C(O)[C@@H]1C[C@@H](O)CN1

Assays:
[1] = tested on: Aspergillus fumigatus (ATCC 13073); assay: Prophylaxis, neutropenic ICR mouse disseminated aspergillosis model, survival
[2] = Previous toxicology studies by the IV route; format: in vivo, cynomolgus monkey
Procedure: Previous toxicology studies by the IV route of administration conducted in cynomolgus monkeys have shown CD101 to be safe and well tolerated at up to at least 30 mg/kg, which generates very high systemic exposures upon initial infusion of CD101 into the bloodstream. Therefore, only local tolerability (and PK) of CD101 by SC administration required evaluation. […] Plasma concentrations were then quantified by liquid chromatography with tandem mass spectrometric detection (LC-MS/MS). Bioavailability from SC dosing was calculated by comparing the calculated area under the concentration-time profile (AUC) from SC against the AUC from IV administration of the same dose.

[3] = In vivo tissue distribution in SD rats after 5 mg/kg IV; settings: Sprague-Dawley, rat
Procedure: The in vitro activity of CD101 was evaluated against 153 A. fumigatus clinical isolates collected as part of the 2014 and 2015 JMI international SENTRY surveillance program. Susceptibility was determined by measuring the minimal effective concentration (MEC) values in accordance with CLSI broth microdilution guidelines (M38-A2). In vivo tissue distribution of CD101 in SD rats (N=3/time up to 5 d) after a 5 mg/kg IV CD101 dose. Plasma/tissue concentrations were measured by LC-MS/MS.

[4] = tested on: A. fumigatus clinical isolates; settings: Aspergillus fumigatus clinical isolates; SENTRY, Pfaller, et al 2017; cited from earlier work
A. fumigatus ATCC 13073 = assay: Disseminated aspergillosis, treatment, neutropenic ICR mice (Example 17); format: in vivo, Aspergillus fumigatus
Excerpt: Survival monitored for ≥10 days.

[5] = Plasma and lung epithelial lining fluid (ELF) concentrations in ICR mice, 20 mg/kg IP; format: in vivo, mouse; settings: for Kp / half-life: 20 mg/kg
Procedure: At pre-dose, 1, 3, 6, 12, 24, 48, and 72 hours post-dose, 3 mice/timepoint were anesthetized/euthanized for blood collection (plasma) and bronchoalveolar lavage fluid (BALF) collection with 2×0.5 mL flushes of saline. Urea levels for plasma/BALF normalization for the volume of lung epithelial lining fluid (ELF) calculation were quantified using a commercially-available spectrophotometry-based assay. CD101 concentrations in plasma/BALF samples were measured by LC with electrospray ionization tandem mass spectrometric (LC-MS/MS) detection.
Urea for plasma/BALF normalization for ELF volume were quantified using spectrophotometry. CD101 concentrations in plasma/BALF samples were measured by LC-MS/MS. Total plasma concentrations were corrected for protein binding (99.2%).

[6] = Single-dose plasma pharmacokinetics in mice, IP; format: in vivo, mouse; settings: IP doses of 1, 4, 16, and 64 mg/kg
Procedure: Plasma from groups of three mice per time point (1, 3, 6, 12, 24, 48, and 72-h) was collected. The plasma drug concentrations were determined by liquid chromatography-tandem mass spectrometry. A noncompartmental model was used in the pharmacokinetic analysis. Elimination half-life was calculated by nonlinear least-squares technique. The area under the concentration-time curve (AUC) was calculated by the trapezoidal rule. Pharmacokinetic exposures for doses not directly measured in the PK study were estimated by linear extrapolation for higher and lower dose levels and by interpolation for dose levels within the dose range studied given the linear PK results.

C. albicans = assay: Neutropenic murine disseminated candidiasis model, PK/PD targets, C. albicans
[7] = tested on: Candida albicans ATCC SC5314; assay: Prophylaxis, neutropenic ICR mouse candidiasis model, kidney CFU; settings: for clearance of kidney CFU: 24 hours post-challenge
[8] = C. albicans, Median of 4 strains

## CCCCCOc1ccc(-c2ccc(-c3ccc(C(=O)N[C@H]4C[C@@H](O)[C@@H](OCC[N+](C)(C)C)NC(=O)[C@@H]5[C@@H](O)[C@@H](C)CN5C(=O)[C@H]([C@@H](C)O)NC(=O)[C@H]([C@H](O)[C@@H](O)c5ccc(O)cc5)NC(=O)[C@@H]5C[C@@H](O)CN5C(=O)[C@H]([C@@H](C)O)NC4=O)cc3)cc2)cc1 [CD101] ({pTerphenylCO(4''-OnC5H11)}-[Orn(4R-OH,5R-OCH2CH2NMe3+)]T[Hyp][hTyr(3S-OH,4S-OH)]T[Pro(3S-OH,4S-Me)]; lactam 1-C)
[1]; CD101 SC 5 mg/kg, 14 days
  survival: increased survival when prophylaxis was given closer to challenge
[1]; CD101 SC 5, 10 and 20 mg/kg on Day −5, −3 and −1
  symptoms of infection (body weight, hunched posture, ruffled fur, immobility, hypothermia): improved
[1]; CD101 SC 10 and 20 mg/kg, any prophylactic treatment day, 14 days
  survival: All animals in the 10 and 20 mg/kg groups survived
[1]; CD101 at 5 mg/kg SC administered one hour after infection
  14-day survival: significant increase in the 14-day survival
[1]; prophylaxis, Doses 0 mg/kg
  survival: 100%
[1]; prophylaxis, single 5 mg/kg dose given up to 5 days prior to infection
  survival: improved survival depending on day given
[2]
  dose safe and well tolerated: at least 30 mg/kg
[3]; liver, kidney, lung, spleen, read-out: tissue/plasma exposure ratios
  Kp: ~4
[3]; plasma, read-out: t1/2 in plasma (converted)
  half-life: 39 h
[3]; tissues (all tissues studied), read-out: t1/2 in all tissues studied
  half-life: 40 to 77 h
[4]
  MEC90: 0.015 µg/mL
A. fumigatus ATCC 13073; CD101 IV/IP 0.2, 1, or 5 mg/kg BID×5d
  survival compared to vehicle: significant increase in survival compared to vehicle
A. fumigatus ATCC 13073; single 2 mg/kg vs 0.2 mg/kg BID×5d
  survival: Survival was comparable
[5]; 20 mg/kg IP
  ELF half-life: 32 h
  mean maximum ELF concentration: 15.1 µg/mL
  mean maximum plasma concentration: 30.1 µg/mL
  plasma half-life: 21.1 h
[5]; 20 mg/kg IP, first collection timepoint
  time of maximum plasma concentration: 1 h
[5]; ICR, mouse, lung epithelial lining fluid (ELF), intraperitoneal, free-drug, read-out: ELF/Plasma AUClast ratio
  Kp: 100
[5]; ICR, mouse, lung epithelial lining fluid (ELF), intraperitoneal, total-drug, read-out: ELF/Plasma AUClast ratio
  Kp: 0.8
[5]; ICR, mouse, lung epithelial lining fluid (ELF), intraperitoneal, 20 mg/kg IP, at 72 h
  concentration at 72 h: 4000 ng/mL
[5]; ICR, mouse, lung epithelial lining fluid (ELF), ip, 20 mg/kg IP, read-out: AUC exposure ratios of ELF/plasma
  Kp: 0.8 to 0.95
[5]; ICR, mouse, lung epithelial lining fluid (ELF), ip, 20 mg/kg IP, read-out: ELF half-life (converted)
  half-life: 31.9 h
[5]; ICR, mouse, lung epithelial lining fluid (ELF), 20 mg/kg IP, read-out: mean ELF AUC
  AUC: 802 µg·h/mL
[5]; ICR, mouse, lung epithelial lining fluid (ELF), 20 mg/kg IP, read-out: mean ELF AUC0-72
  AUC(0-t): 606 µg·h/mL
[5]; ICR, mouse, plasma, ip, 20 mg/kg IP, read-out: plasma half-life (converted)
  half-life: 21 h
[5]; ICR, mouse, plasma, 20 mg/kg IP, read-out: mean plasma AUC
  AUC: 848 µg·h/mL
[5]; ICR, mouse, plasma, 20 mg/kg IP, read-out: mean plasma AUC0-72
  AUC(0-t): 762 µg·h/mL
[6]
  elimination half-life: 29 to 41 h
[6]; mouse, plasma, ip, 64 mg/kg, read-out: elimination half-life
  half-life: 28 to 41 h
[6]; mouse, plasma
  AUC(0-inf): 93.2 to 40500 µg·h/mL
[6]; mouse, plasma, read-out: Peak (Cmax) levels
  Cmax: 2600 to 76700 ng/mL
C. albicans; C. albicans 98-17
  1 log kill 24 h Ave Free drug AUC/MIC: 3.92
  1 log kill dose: 2.73 mg/kg
  1 log kill free drug AUC0-168h/MIC: 27.47
  1 log kill total drug AUC0-168h/MIC: 3433.40
  Stasis 24 h Ave free drug AUC/MIC: 2.19
  Stasis free drug AUC0-168h/MIC: 15.35
  Stasis total drug AUC0-168h/MIC: 1918.43
  Static dose: 1.34 mg/kg
C. albicans; C. albicans 98-210
  1 log kill 24 h Ave Free drug AUC/MIC: 6.72
  1 log kill dose: 2.28 mg/kg
  1 log kill free drug AUC0-168h/MIC: 47.01
  1 log kill total drug AUC0-168h/MIC: 5875.95
  Stasis 24 h Ave free drug AUC/MIC: 3.70
  Stasis free drug AUC0-168h/MIC: 25.93
  Stasis total drug AUC0-168h/MIC: 3241.65
  Static dose: 1.06 mg/kg
C. albicans; C. albicans 580
  1 log kill 24 h Ave Free drug AUC/MIC: 3.05
  1 log kill dose: 2.03 mg/kg
  1 log kill free drug AUC0-168h/MIC: 21.34
  1 log kill total drug AUC0-168h/MIC: 2667.21
  Stasis 24 h Ave free drug AUC/MIC: 2.02
  Stasis free drug AUC0-168h/MIC: 14.15
  Stasis total drug AUC0-168h/MIC: 1769.30
  Static dose: 1.20 mg/kg
C. albicans; C. albicans K-1
  1 log kill 24 h Ave Free drug AUC/MIC: 6.86
  1 log kill dose: 5.26 mg/kg
  1 log kill free drug AUC0-168h/MIC: 48.05
  1 log kill total drug AUC0-168h/MIC: 6005.95
  Stasis 24 h Ave free drug AUC/MIC: 3.65
  Stasis free drug AUC0-168h/MIC: 25.58
  Stasis total drug AUC0-168h/MIC: 3197.16
  Static dose: 2.52 mg/kg
C. albicans; C. albicans, Mean of 4 strains
  1 log kill 24 h Ave Free drug AUC/MIC: 5.14
  1 log kill dose: 3.08 mg/kg
  1 log kill free drug AUC0-168h/MIC: 35.97
  1 log kill total drug AUC0-168h/MIC: 4495.63
  Stasis 24 h Ave free drug AUC/MIC: 2.89
  Stasis free drug AUC0-168h/MIC: 20.25
  Stasis total drug AUC0-168h/MIC: 2531.64
  Static dose: 1.53 mg/kg
C. albicans; [8]
  1 log kill 24 h Ave Free drug AUC/MIC: 5.32
  1 log kill dose: 2.51 mg/kg
  1 log kill free drug AUC0-168h/MIC: 37.24
  1 log kill total drug AUC0-168h/MIC: 4654.68
  Stasis 24 h Ave free drug AUC/MIC: 2.92
  Stasis free drug AUC0-168h/MIC: 20.5 and 20.46
  Stasis total drug AUC0-168h/MIC: 2557.79
  Static dose: 1.27 mg/kg
C. albicans; C. albicans, a number of strains
  kill at high doses: > 2 log10
[7]; CD101 SC 10 mg/kg at Day −3 and Day −1
  clearance of kidney CFU: Complete clearance was observed in all animals
[7]; CD101 SC 20 mg/kg on Day −3
  clearance of kidney CFU: all but one animal
[7]; CD101 SC 20 mg/kg, Day −5, −3 or −1
  kidney CFU burden: reduced CFU burden regardless of prophylactic treatment day
[7]; CD101 SC 5 or 10 mg/kg at Day −3 and Day −1
  kidney CFU: significant decrease in CFU
